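1) Cells in 96-well plates. 2) Compound, 48 h, 5 concentrations. 3) Linear interpolation between surrounding doses. 4) Unreached endpoint = highest concentration. The concentration for 50% growth inhibition is given as GI50. TGI is the concentration that stops growth completely.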
What was measured:
Test in all cases: NCI-60 cell line screen, 48 h
SK-OV-3 ovarian = test system: SK-OV-3 ovarian
MALME-3M melanoma = test system: MALME-3M melanoma
HOP-62 NSCLC = test system: HOP-62 NSCLC
NCI/ADR-RES ovarian = test system: NCI/ADR-RES ovarian
SNB-19 CNS = test system: SNB-19 CNS
RXF 393 renal = test system: RXF 393 renal
ACHN renal = test system: ACHN renal
HL-60(TB) leukemia = test system: HL-60(TB) leukemia
HT29 colon = test system: HT29 colon
LOX IMVI melanoma = test system: LOX IMVI melanoma

| SMILES | TGI (SK-OV-3 ovarian) | TGI (MALME-3M melanoma) | TGI (HOP-62 NSCLC) | TGI (NCI/ADR-RES ovarian) | TGI (SNB-19 CNS) | TGI (RXF 393 renal) | TGI (ACHN renal) | TGI (HL-60(TB) leukemia) | TGI (HT29 colon) | TGI (LOX IMVI melanoma) | GI50 (SK-OV-3 ovarian) | GI50 (MALME-3M melanoma) | GI50 (HOP-62 NSCLC) | GI50 (HT29 colon) | GI50 (LOX IMVI melanoma) | GI50 (NCI/ADR-RES ovarian) | GI50 (SNB-19 CNS) | GI50 (RXF 393 renal) | GI50 (ACHN renal) | GI50 (HL-60(TB) leukemia) |
| --- | --- | --- | --- | --- | --- | --- | --- | --- | --- | --- | --- | --- | --- | --- | --- | --- | --- | --- | --- | --- |
| CN1CCc2ccccc2C1Cc1ccccc1NC(=O)c1sc2ccccc2c1Cl (stereo not drawn) | > 100 µM | > 100 µM | > 100 µM | > 100 µM | > 100 µM | > 100 µM | > 100 µM | > 100 µM |  |  |  |  |  |  |  |  |  |  |  |  |
| CCNCC(=O)Nc1ccc2c(c1)C(=O)c1ccc(NC(=O)CNCC)cc1C2=O | 9.48 µM | 33 µM | 20 µM | 28.3 µM | 12.1 µM | 13.3 µM | 9.15 µM | 8.81 µM | 9.87 µM | 6.58 µM |  |  |  |  |  |  |  |  |  |  |
| COc1cc2c(/C=C3\C(=O)N(C)c4ccccc43)c[nH]c2cc1C | > 100 µM | > 53.9 µM | 39.3 µM | 23.3 µM | > 100 µM | 69.9 µM | 55.7 µM | 84.8 µM |  | > 47.9 µM | 8.35 µM | 1 µM | 2.23 µM | 0.36 µM | 0.869 µM | 0.65 µM | 4.15 µM | 2.56 µM | 3.61 µM | 2.53 µM |
| O=S(O)O.O=S(O)O.[Co].[NH2-].[NH2-].[NH2-].[NH2-] | > 100 µM | > 100 µM | > 100 µM | > 100 µM | > 100 µM | > 100 µM | > 100 µM | > 100 µM | > 100 µM | > 100 µM | > 100 µM | > 100 µM | > 100 µM | > 100 µM | > 100 µM | > 100 µM | > 100 µM | > 100 µM | > 100 µM | > 100 µM |
| NC(=O)c1cn(C2CC(O)C(CO)O2)c2ncnc(N)c12 (stereo not drawn) | 43 µM |  | 49.7 µM | 24.2 µM | 45.5 µM | 13.9 µM | > 58.1 µM | 20 µM | > 54.8 µM | 4.43 µM | 1.68 µM | 0.763 µM | 5.36 µM | 2.07 µM | 1.2 µM | 2 µM | 7 µM | 2.08 µM | 3.62 µM | 2.73 µM |
| CCCCCCCCCCCCCCCCn1cc[n+](C)c1 | 3.17 µM | 1.51 µM | 1.73 µM | 18.4 µM | 2 µM | 0.907 µM | 2.01 µM | 0.321 µM | 1.25 µM | 1.64 µM | 0.941 µM | 0.357 µM | 0.443 µM | 0.291 µM | 0.412 µM | 1.95 µM | 0.705 µM | 0.252 µM | 0.613 µM | 0.129 µM |
| O=c1[nH]c(-c2ccc(Cl)c(Cl)c2)cn1-c1ccc(Cl)cc1 | 41.7 µM | 39.7 µM | 31.9 µM | > 100 µM | 81.2 µM | 56.4 µM | > 100 µM | > 100 µM | > 100 µM | > 100 µM | 19.9 µM | 17 µM | 16.3 µM | 41.8 µM | 36.2 µM | 27.7 µM | 30.1 µM | 32.7 µM | 32.5 µM | 34.1 µM |
| O=C1OC2(c3ccc(O)cc3Oc3cc(O)ccc32)c2cccc3cccc1c23 | > 100 µM | 54.7 µM | 33.9 µM | > 100 µM | 34.1 µM | 26.9 µM | 44 µM | 81.6 µM | 47.4 µM | 36 µM | 34 µM | 20.5 µM | 17 µM | 21 µM | 18.1 µM | 31.7 µM | 17.5 µM | 13.8 µM | 16.7 µM | 30.6 µM |
| CC(C)[C@@]12C[C@@H](OC(=O)C3CO3)[C@@](C)(O1)[C@@H]1CC[C@@H](C)[C@H]1[C@@H]2OC(=O)/C=C/c1ccccc1 (stereo partly drawn) | 46.8 µM | 27.4 µM | > 100 µM | 37.4 µM | 33.4 µM | 22.4 µM | 7.79 µM | 68.3 µM | > 100 µM | 36.7 µM | 18.6 µM | 13 µM | 21.2 µM | 33.6 µM | 17 µM | 10.8 µM | 16.6 µM | 7.86 µM | 2.34 µM | 22.7 µM |
| OCc1ccc(-c2nc(-c3ccc4c(c3)OCO4)c(-c3ccccn3)[nH]2)cc1 | > 25 µM | > 25 µM | > 25 µM | > 25 µM | > 25 µM | > 25 µM | > 25 µM | > 25 µM | > 25 µM | > 25 µM | > 25 µM | > 25 µM | > 25 µM | > 25 µM | 19 µM | 10.4 µM | > 25 µM | > 16.5 µM | > 25 µM | > 25 µM |
| CCOC(=O)Cc1csc(NC(=O)C(OC(=O)c2ccc(Cl)cc2)c2ccccc2)n1 (stereo not drawn) | > 100 µM | > 100 µM | > 100 µM | > 100 µM | > 100 µM | 95.8 µM | > 100 µM | 68.9 µM | 88 µM | > 100 µM | > 100 µM | 47.9 µM | 44.1 µM | 27 µM | 33.6 µM | 41.1 µM | 50.5 µM | 28.6 µM | 62.1 µM | 9.28 µM |
| Cc1cc(-c2nc3sc(C)cn3c2/C=N/N=C(N)N)c(C)s1 | 39.1 µM |  | 8.64 µM | 29.2 µM | 36.2 µM | 32.7 µM | 34.4 µM | > 100 µM | 20.2 µM | 29.8 µM | 20.9 µM |  | 3.17 µM | 3.74 µM | 13.3 µM | 14.6 µM | 18.2 µM | 15 µM | 18.7 µM | > 100 µM |
| CCN1/C(=C/C(C)=C/c2sc3ccc4ccccc4c3[n+]2CC)Sc2ccc3ccccc3c21 | 0.78 µM |  | 0.47 µM | 5.61 µM |  |  | 0.614 µM | 2.68 µM | 0.233 µM | 0.465 µM | 0.236 µM |  | 0.192 µM | 0.109 µM | 0.183 µM | 0.964 µM |  |  | 0.147 µM | 0.106 µM |
